Measured values as given in patent publication US20100016163A1, “Adjuvant and dispersant formulations for pesticidal applications” (priority 2007, published 2010).
Where two headings read alike, the source gives them in different places.

Assays:
all 8 species = experiment: Field trial of phytotoxicity enhancement, isopropyl ammonium glyphosate formulations (Example 7), sum over species; format: in vivo; conditions: foliar, isopropyl ammonium glyphosate 360 g a.e./l, 15% surfactant
Description: (§1) The C14 DMAPA MeCl Esterquat formulation was prepared as follows: About 32.3 grams of a solution of the isopropyl ammonium salt of glyphosate, which was about 46.5% by weight acid equivalent (a.e.) of glyphosate and about 6.2 grams of deionized water, were added in a 4-ounce jar. Then, about 7.5 grams of the C14 DMAPA MeCl Esterquat and about 4 grams of propylene glycol were slowly added to the jar with stirring.
(§2) Samples of the formulations as made above were applied to subject plants at two application rates, 90% and 45% of the label rate of RoundUp® Ultra, available from Monsanto Company, St. Louis, Mo. RoundUp® Ultra contains about 360 g a.e./l of isopropyl ammonium glyphosate salt and about 15% by weight of a blend of surfactants. The precise identity of the surfactants has not been disclosed.
Eight plant species were selected for the study. They include (1) Bamyardgrass, (2) Redroot pigweed, (3) Morning glory ivyleaf, (4) Sicklepod, (5) Panicum, (6) Crabgrass, (7) Velvetleaf, and (8) Sunflower. The tests were performed in a randomized complete block design with 5 replicates of each species of plant. Plants were grown in square plastic pots, 3.75 inches×3.75 inches and 3.125 inches deep. Prior to treatment, 5 replicate pots were indiscriminately selected for each treatment and plant species. […]

Barnyardgrass = experiment: Field trial Example 7, % kill; format: in vivo; conditions: isopropyl ammonium glyphosate 360 g a.e./l
Description: as §1, §2
(§3) Eight plant species were selected for the study. They include (1) Bamyardgrass, (2) Redroot pigweed, (3) Morning glory ivyleaf, (4) Sicklepod, (5) Panicum, (6) Crabgrass, (7) Velvetleaf, and (8) Sunflower. The tests were performed in a randomized complete block design with 5 replicates of each species of plant. Plants were grown in square plastic pots, 3.75 inches×3.75 inches and 3.125 inches deep. Prior to treatment, 5 replicate pots were indiscriminately selected for each treatment and plant species. Treatments were applied as foliar applications with a hand pump sprayer equipped with 1 nozzle calibrated to deliver 15 gallons per acre. All spraying tests included a set of 5 untreated control plants from each species.

Crabgrass = experiment: Field trial Example 7, % kill; format: in vivo; conditions: isopropyl ammonium glyphosate 360 g a.e./l
Description: as §1, §2, §3

Morning glory, ivyleaf = experiment: Field trial Example 7, % kill; format: in vivo; conditions: isopropyl ammonium glyphosate 360 g a.e./l
Description: as §1, §2, §3

Panicum, fall = experiment: Field trial Example 7, % kill; format: in vivo; conditions: isopropyl ammonium glyphosate 360 g a.e./l
Description: as §1, §2, §3

Redroot pigweed = experiment: Field trial Example 7, % kill; format: in vivo; conditions: isopropyl ammonium glyphosate 360 g a.e./l
Description: as §1, §2, §3

Sicklepod = experiment: Field trial Example 7, % kill; format: in vivo; conditions: isopropyl ammonium glyphosate 360 g a.e./l
Description: as §1, §2, §3

Sunflower = experiment: Field trial Example 7, % kill; format: in vivo; conditions: isopropyl ammonium glyphosate 360 g a.e./l
Description: as §1, §2, §3

Velvetleaf = experiment: Field trial Example 7, % kill; format: in vivo; conditions: isopropyl ammonium glyphosate 360 g a.e./l
Description: as §1, §2, §3

[1] = Surface tension, Gibbs isotherm (Kibron μTrough S); format: physicochemical; conditions: FIG. 3
Text: The surface tension of a solution can give important information about its behavior as a surfactant. Measuring the surface tension of a series of aqueous solutions of a molecule and plotting the measured surface tension results versus the logarithm of the concentrations of the series of aqueous solutions yields a plot known as a Gibbs isotherm. From the Gibbs isotherm, one can obtain the critical micelle concentration (CMC) of a surfactant as well as the surface tension at the CMC, two parameters that can indicate the behavior of a surfactant.
For each molecule studied, 14 solutions were prepared so that each solution was half the concentration of the previous solution. Another solution that consisted of only deionized water was used as a reference. Therefore, a total of 15 solutions were studied for each molecule.

[2] = acid form, 25° C., cited from earlier work

For `CCCCCCCCCCCCCC(=O)NCCC[N+](C)(C)C.[Cl-]` [C14 DMAPA MeCl Esterquat], which “Sum of % kill of all 8 species at low (45%) application rate” value (all 8 species; 45% of RoundUp Ultra label rate) is on record?
The value was 660%.

What about the “Sum of % kill of all 8 species at high (90%) application rate” value (all 8 species; 90% of RoundUp Ultra label rate) of the same compound?
The value was 708%.

And the “% kill” value (Barnyardgrass; high (90%) application rate)?
Its value is 100%.

What about the “% kill” value (Barnyardgrass; low (45%) application rate) of the same compound?
Its value is 99%.

What about the “% kill” value (Crabgrass; high (90%) application rate) of the same compound?
The value was 100%.

And the “% kill” value (Crabgrass; low (45%) application rate)?
The value was 100%.

What about the “% kill” value (Morning glory, ivyleaf; high (90%) application rate) of the same compound?
The value was 84%.

And the “% kill” value (Morning glory, ivyleaf; low (45%) application rate)?
Its value is 53%.

And the “% kill” value (Panicum, fall; high (90%) application rate)?
The value was 95%.

What about the “% kill” value (Panicum, fall; low (45%) application rate) of the same compound?
Its value is 90%.

What about the “% kill” value (Redroot pigweed; high (90%) application rate) of the same compound?
Its value is 100%.

What about the “% kill” value (Redroot pigweed; low (45%) application rate) of the same compound?
Its value is 100%.

And the “% kill” value (Sicklepod; high (90%) application rate)?
The value was 33%.

What about the “% kill” value (Sicklepod; low (45%) application rate) of the same compound?
The value was 22%.

What about the “% kill” value (Sunflower; high (90%) application rate) of the same compound?
The value was 100%.

And the “% kill” value (Sunflower; low (45%) application rate)?
Its value is 100%.

And the “% kill” value (Velvetleaf; high (90%) application rate)?
Its value is 96%.

What about the “% kill” value (Velvetleaf; low (45%) application rate) of the same compound?
The value was 96%.

What about the “surface activity, compared with C14 DMAPA MeCl Esterquat” value [1] of the same compound?
The value was “higher surface activity”.

Which results are given for `O=C(O)CNCP(=O)(O)O` [Glyphosate, N-(phosphonomethyl)glycine]?
solubility in water [2]: 1.16 % by weight; solubility in water ([2]; listed as glyphosate): about 1.16 % by weight
